Key:
[1] = system: P. falciparum 3D7; assay: 72-h compound exposure assay with wash-unwashed procedure (up to 144 h); format: cell-based, Plasmodium falciparum; conditions: for Parasitemia levels at 48 and 72 h compared to untreated controls: compound at IC80; for Cidal versus static effect: compound at IC80, up to 144 h, washed and unwashed groups
Protocol: In the 72-h compound exposure assay with the compound wash-unwashed procedure, parasites at the ring stage with 0.5% parasitemia and 2% hematocrit were employed. For this evaluation, Compounds 31 and 32 were used at concentrations equivalent to their respective IC80 values (Compound 31: 18.08 μM; hill slope 2.10, Compound 32: 11.74 μM; hill slope 2.02). These groups were considered the treated groups, while cultures with only complete medium served as untreated groups. The IC80 was used to allow observations of parasite morphology under incomplete inhibition, the potential emergence of abnormal morphologies, and the state of parasites following compound removal. This experimental setup was repeated three times for each concentration and time point. Thin blood smears were prepared from each treatment group at 1, 24, 48, or 72 h post incubation. In different culture sets, after 72 h of incubation, the medium was exchanged, and the compounds were subjected to three washes using fresh complete medium. Incubation was then continued either in the presence (unwashed group) or absence (washed group) of the test compounds for up to 144 h. Thin blood smears were consecutively prepared from each treatment group at 96, 120, and 144 h. The smears were visualized using a BZ-900 all-in-one microscope (Keyence BioRevo, Tokyo, Japan). Parasitemia levels were calculated by counting the number and determining the ratio of infected erythrocytes relative to the number of uninfected erythrocytes.

[2] = system: P. falciparum 3D7; assay: Stage-specific microscopy examination (ring, trophozoite, schizont); format: cell-based, Plasmodium falciparum; conditions: for Inhibition of the life cycle at 10- and 1-fold IC50: 24 h; for Parasite morphology after 24 h treatment: ring, trophozoite, schizont stages, artemisinin and chloroquine at all concentrations, Compounds 31 and 32 at 100 times IC50
Protocol: To ensure uniformity, the parasites underwent a rigorous synchronization process using a two-step sorbitol treatment procedure. This synchronized parasite population was harnessed within a 2-h window for the ring stage, 8–10 h for the trophozoite stage, and 24–26 h for the schizont stage. Subsequent to sorbitol treatment, early trophozoites could be obtained within 6–8 h after the initial sorbitol treatment (within 20 h of development), while early schizonts could be obtained after an additional 16 h of incubation (within 36 h of development). Beyond 36 h, the schizonts mature, causing the rupture of red blood cells (RBCs) and the consequent release of merozoites, which promptly infect new RBCs.
The negative control group consisted of cultures treated solely with complete medium and was designated the no treatment (NT) group. This analysis was repeated three times at each concentration. Following a 24-h incubation period, the culture in a 96-well plate was centrifuged at 1300 g for 5 min to settle down the iRBC; then, the supernatants were removed, and the iRBCs were washed with fresh media at the same volume as the initial culture. The centrifugation and washing were repeated 3 times, allowing the compound to be diluted by approximately 1000 times. Subsequently, thin blood smears from each treatment group were prepared using 1 μL of settled iRBCs. The proportion of parasites affected by the drug, including those with both abnormal and retained morphologies, was calculated by examining 100 parasites and counting the number displaying irregular development. Subsequently, the number of abnormal parasites was divided by the total count and then multiplied by 100 to obtain a percentage. The parameters used to define normal and abnormal morphologies can be found in Table S3 and Fig. S1.

Compound | Parasitemia levels at 48 and 72 h compared to untreated controls [1] | Cidal versus static effect [1] | Inhibition of the life cycle at 10- and 1-fold IC50 [2] | Parasite morphology after 24 h treatment [2]
COc1cccc(-c2ncc(-c3ccccc3O)o2)c1OC [Compound 31, 2-(2′,3′-dimethoxyphenyl)-5-(2″-hydroxyphenyl)oxazole] | significantly lower parasitemia levels | possible cidal effect | only partial inhibition of the life cycle | abnormal phenotype of ring-stage parasites
COc1cccc(-c2ncc(-c3ccccc3OCc3ccccc3)o2)c1OC [Compound 32, 2-(2′,3′-dimethoxyphenyl)-5-(2″-benzyloxyphenyl)oxazole] | significantly lower parasitemia levels | predominantly static effect | only partial inhibition of the life cycle | abnormal phenotype of ring-stage parasites
